Measurements as given in the supplement of paper PMC11451515.

What was measured:
Details in all cases: 48 h
SEM cells [1] = test: cell viability relative to DMSO control; higher = less cytotoxic
Method in brief: (§1)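 Viability is a per-plate percentage relative to DMSO wells, with cell-free wells as background. CellTiter-Glo One luminescence was read after 48 h at 37°C on 1536-well plates (5 μl) of NOMO1 or SEM (500 cells/well) or P12-Ichikawa (1000 cells/well) leukemia cells. The cells had been adapted for at least four passages in each medium and pin-dosed with library compounds in DMSO from 47 μM to 0.79 nM in 11 threefold steps.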

P12-Ichikawa [2] = test: AUC of viability dose-response curve (% viability x log10 dose units); higher = less sensitive
Method in brief: (§2)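 Over 48 h at 37°C, leukemia cells in 1536-well plates (500 or 1000 cells/well), adapted to each medium, received library compounds in DMSO at 11 threefold doses from 47 μM to 0.79 nM. CellTiter-Glo One luminescence, normalised per plate to DMSO and cell-free wells, was fitted by a four-parameter log-logistic function of log10 dose. The area under the curve was then integrated by trapezoidal rule, after scaling curves above full viability and removing those that failed quality control.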

SEM cells [3] = test: as above
Method in brief: as §2

NOMO1 [4] = test: as above
Method in brief: as §2

P12-Ichikawa [5] = test: cell viability relative to DMSO control; higher = less cytotoxic
Method in brief: as §1

NOMO1 [6] = test: as above
Method in brief: as §1

O=C1CCC(N2C(=O)c3ccccc3C2=O)C(=O)N1 (stereo unspecified)
SEM cells [1], RPMI 5 mM glucose + 10% FBS
Details | cell viability [%]
0.000781 µM | 106
0.00234 µM | 114
0.00702 µM | 115
0.0211 µM | 112
0.0632 µM | 102
0.19 µM | 94.6
0.569 µM | 98.2
1.71 µM | 111
5.12 µM | 101
15.4 µM | 67.3
46.1 µM | 98.9

AUC of viability dose-response curve
Details | NOMO1 [4] | P12-Ichikawa [2] | SEM cells [3]
HPLM + 10% dialyzed FBS | 436 | 443 | 454
RPMI 5 mM glucose + 10% FBS | 437 | 438 | 437
RPMI 5 mM glucose + 10% dialyzed FBS | 461 | 450 | 443

C=CC[N+]1([C@H]2C[C@H]3[C@@H]4CC[C@H]5C[C@H](O)[C@@H](N6CCOCC6)C[C@]5(C)[C@H]4CC[C@]3(C)[C@H]2OC(C)=O)CCCC1
SEM cells [1], HPLM + 10% dialyzed FBS
Details | cell viability [%]
0.000781 µM | 130
0.00234 µM | 116
0.00702 µM | 119
0.0211 µM | 125
0.0632 µM | 114
0.19 µM | 131
0.569 µM | 124
1.71 µM | 127
5.12 µM | 119
15.4 µM | 113
46.1 µM | 113

AUC of viability dose-response curve
Details | NOMO1 [4] | P12-Ichikawa [2] | SEM cells [3]
HPLM + 10% dialyzed FBS | 442 | 457 | 462
RPMI 5 mM glucose + 10% FBS | 454 | 455 | 464
RPMI 5 mM glucose + 10% dialyzed FBS | 455 | 462 | 465

CCCCCCCN(CC)CCCC(O)c1ccc(NS(C)(=O)=O)cc1.CCCCCCCN(CC)CCCC(O)c1ccc(NS(C)(=O)=O)cc1.O=C(O)/C=C/C(=O)O (stereo unspecified)
cell viability [%]
Details | NOMO1 [6] | P12-Ichikawa [5] | SEM cells [1]
HPLM + 10% dialyzed FBS, 0.000781 µM | 117 | 111 | 88.9
HPLM + 10% dialyzed FBS, 0.00234 µM | 112 | 108 | 93.2
HPLM + 10% dialyzed FBS, 0.00702 µM | 126 | 116 | 95.1
HPLM + 10% dialyzed FBS, 0.0211 µM | 126 | 111 | 104
HPLM + 10% dialyzed FBS, 0.0632 µM | 114 | 101 | 74.8
HPLM + 10% dialyzed FBS, 0.19 µM | 126 | 125 | 109
HPLM + 10% dialyzed FBS, 0.569 µM | 127 | 113 | 96.7
HPLM + 10% dialyzed FBS, 1.71 µM | 108 | 112 | 108
HPLM + 10% dialyzed FBS, 5.12 µM | 122 | 112 | 97.7
HPLM + 10% dialyzed FBS, 15.4 µM | 112 | 88.9 | 114
HPLM + 10% dialyzed FBS, 46.1 µM | 102 | 77.7 | 15
RPMI 5 mM glucose + 10% FBS, 0.000781 µM | 94.3 | 107 | 83.9
RPMI 5 mM glucose + 10% FBS, 0.00234 µM | 108 | 118 | 102
RPMI 5 mM glucose + 10% FBS, 0.00702 µM | 105 | 113 | 93.3
RPMI 5 mM glucose + 10% FBS, 0.0211 µM | 99.8 | 108 | 90.7
RPMI 5 mM glucose + 10% FBS, 0.0632 µM | 107 | 85.4 | 56.4
RPMI 5 mM glucose + 10% FBS, 0.19 µM | 106 | 115 | 95.4
RPMI 5 mM glucose + 10% FBS, 0.569 µM | 97.1 | 116 | 88.9
RPMI 5 mM glucose + 10% FBS, 1.71 µM | 107 | 111 | 122
RPMI 5 mM glucose + 10% FBS, 5.12 µM | 101 | 102 | 96.5
RPMI 5 mM glucose + 10% FBS, 15.4 µM | 107 | 89.6 | 94
RPMI 5 mM glucose + 10% FBS, 46.1 µM | 110 | 69.1 | 10.3
RPMI 5 mM glucose + 10% dialyzed FBS, 0.000781 µM | 110 | 100 | 87.4
RPMI 5 mM glucose + 10% dialyzed FBS, 0.00234 µM | 114 | 101 | 99.9
RPMI 5 mM glucose + 10% dialyzed FBS, 0.00702 µM | 107 | 106 | 105
RPMI 5 mM glucose + 10% dialyzed FBS, 0.0211 µM | 100 | 113 | 103
RPMI 5 mM glucose + 10% dialyzed FBS, 0.0632 µM | 99.9 | 94.8 | 74.6
RPMI 5 mM glucose + 10% dialyzed FBS, 0.19 µM | 124 | 108 | 90.6
RPMI 5 mM glucose + 10% dialyzed FBS, 0.569 µM | 103 | 111 | 112
RPMI 5 mM glucose + 10% dialyzed FBS, 1.71 µM | 109 | 113 | 114
RPMI 5 mM glucose + 10% dialyzed FBS, 5.12 µM | 114 | 98.9 | 94.2
RPMI 5 mM glucose + 10% dialyzed FBS, 15.4 µM | 112 | 93 | 91.9
RPMI 5 mM glucose + 10% dialyzed FBS, 46.1 µM | 90.3 | 69.2 | 11.6

AUC of viability dose-response curve
Details | NOMO1 [4] | P12-Ichikawa [2] | SEM cells [3]
HPLM + 10% dialyzed FBS | 471 | 460 | 446
RPMI 5 mM glucose + 10% FBS | 463 | 457 | 421
RPMI 5 mM glucose + 10% dialyzed FBS | 464 | 461 | 443

CC(=O)NC(C)c1ccc(Oc2ccc(OC(C)C)cc2)cc1 (stereo unspecified)
AUC of viability dose-response curve
Details | HPLM + 10% dialyzed FBS | RPMI 5 mM glucose + 10% FBS | RPMI 5 mM glucose + 10% dialyzed FBS
P12-Ichikawa [2] | 454 | 440 | 450
SEM cells [3] | 469 | 438 | 449

C=C[C@H]1CN2CCC1C[C@H]2[C@H](O)c1ccnc2ccccc12 (stereo partly specified)
SEM cells [1], RPMI 5 mM glucose + 10% dialyzed FBS
Details | cell viability [%]
0.000781 µM | 123
0.00234 µM | 120
0.00702 µM | 122
0.0211 µM | 133
0.0632 µM | 126
0.19 µM | 138
0.569 µM | 132
1.71 µM | 133
5.12 µM | 108
15.4 µM | 110
46.1 µM | 55.1

AUC of viability dose-response curve
Details | NOMO1 [4] | P12-Ichikawa [2] | SEM cells [3]
HPLM + 10% dialyzed FBS | 451 | 458 | 449
RPMI 5 mM glucose + 10% FBS | 461 | 451 | 441
RPMI 5 mM glucose + 10% dialyzed FBS | 433 | 461 | 452

COc1cc([S+](C)(=O)[O-])ccc1Nc1nc2ccc(-c3ccc(NC(=O)[C@H](C)c4ccc(F)cc4)cc3)cn2n1
cell viability [%]
Details | NOMO1 [6] | P12-Ichikawa [5] | SEM cells [1]
HPLM + 10% dialyzed FBS, 0.000781 µM | 104 | 109 | 90.4
HPLM + 10% dialyzed FBS, 0.00234 µM | 120 | 106 | 87.8
HPLM + 10% dialyzed FBS, 0.00702 µM | 139 | 108 | 102
HPLM + 10% dialyzed FBS, 0.0211 µM | 146 | 110 | 89.2
HPLM + 10% dialyzed FBS, 0.0632 µM | 157 | 120 | 107
HPLM + 10% dialyzed FBS, 0.19 µM | 137 | 117 | 102
HPLM + 10% dialyzed FBS, 0.569 µM | 139 | 120 | 94.8
HPLM + 10% dialyzed FBS, 1.71 µM | 99.3 | 49 | 41.9
HPLM + 10% dialyzed FBS, 5.12 µM | 109 | 56.4 | 52.1
HPLM + 10% dialyzed FBS, 15.4 µM | 101 | 61.4 | 52.3
HPLM + 10% dialyzed FBS, 46.1 µM | 100 | 65 | 43.1
RPMI 5 mM glucose + 10% FBS, 0.000781 µM | 106 | 103 | 98
RPMI 5 mM glucose + 10% FBS, 0.00234 µM | 129 | 116 | 117
RPMI 5 mM glucose + 10% FBS, 0.00702 µM | 122 | 118 | 92.3
RPMI 5 mM glucose + 10% FBS, 0.0211 µM | 131 | 108 | 86.1
RPMI 5 mM glucose + 10% FBS, 0.0632 µM | 134 | 113 | 124
RPMI 5 mM glucose + 10% FBS, 0.19 µM | 123 | 117 | 108
RPMI 5 mM glucose + 10% FBS, 0.569 µM | 124 | 114 | 104
RPMI 5 mM glucose + 10% FBS, 1.71 µM | 92.4 | 37.2 | 41.2
RPMI 5 mM glucose + 10% FBS, 5.12 µM | 101 | 55.1 | 41.4
RPMI 5 mM glucose + 10% FBS, 15.4 µM | 94.9 | 56.4 | 34.6
RPMI 5 mM glucose + 10% FBS, 46.1 µM | 97.2 | 57.1 | 31
RPMI 5 mM glucose + 10% dialyzed FBS, 0.000781 µM | 114 | – | 88.4
RPMI 5 mM glucose + 10% dialyzed FBS, 0.00234 µM | 117 | – | 112
RPMI 5 mM glucose + 10% dialyzed FBS, 0.00702 µM | 123 | – | 108
RPMI 5 mM glucose + 10% dialyzed FBS, 0.0211 µM | 130 | – | 90.4
RPMI 5 mM glucose + 10% dialyzed FBS, 0.0632 µM | 120 | – | 136
RPMI 5 mM glucose + 10% dialyzed FBS, 0.19 µM | 136 | – | 99.1
RPMI 5 mM glucose + 10% dialyzed FBS, 0.569 µM | 129 | – | 98.1
RPMI 5 mM glucose + 10% dialyzed FBS, 1.71 µM | 92.7 | – | 53.9
RPMI 5 mM glucose + 10% dialyzed FBS, 5.12 µM | 96.3 | – | 50
RPMI 5 mM glucose + 10% dialyzed FBS, 15.4 µM | 96.1 | – | 48.2
RPMI 5 mM glucose + 10% dialyzed FBS, 46.1 µM | 88.8 | – | 43

AUC of viability dose-response curve
Details | NOMO1 [4] | P12-Ichikawa [2] | SEM cells [3]
HPLM + 10% dialyzed FBS | 430 | 396 | 377
RPMI 5 mM glucose + 10% FBS | 439 | 386 | 369
RPMI 5 mM glucose + 10% dialyzed FBS | 436 | 394 | 384
